We go through 1 molecule from patent US20180118707A1, “BETA-NAPHTHOISOFLAVONES, COMPOSITIONS CONTAINING, AND USES OF, SAME” (Thesan Pharmaceuticals, Inc., priority 2015, published 2018).

SMILES strings stand for the structures.

One data set relates to HepG2 cells. Kind of data set: MTT cytotoxicity assay in HepG2 cells after EROD. The data set is classed as cell-based, human. How it is done: The formation of resorufin is quantified by fluorometry with a fluorescence plate reader. Fluorescence is determined at λex 570 nm and λem 590 nm. The amount of resorufin is calculated from a standard curve generated using 0 to 1 μM resorufin in water at ½ log dilutions. The remaining (i.e. all cells present at the beginning of analysis, since only supernatant is taken to assay EROD) live cells are subsequently utilized for the MIT cytotoxicity assay. MTT is made up in serum-free medium at 5 mg/ml. then added to the cells giving a final concentration of 10% (0.5 mg/ml MTT final) then incubated for 2 h. The medium is carefully removed, then MTT formazan is solubilized by adding 200 μl of DMSO and subsequently mixed on a plate shaker. The absorbance is measured spectra photometrically at 550 nm and background absorbance at 690 nm is subtracted.

A further data set has as its system CYP1A1 mRNA. Kind of data set: Induction of CYP1A1 mRNA in HepG2 cells (RT-PCR). The data set is classed as cell-based, human. As to conditions: 24 h incubation, 10 uM, normalized to 18S rRNA. The protocol:
HepG2 cells (American Type Culture Collection (ATCC), Manassas, Va.) were cultured using Eagle's minimal essential medium (ATCC), supplemented with 10% fetal calf serum (Invitrogen Life Technologies). The cells were cultured continuously until used in experiments (similar to Examples 2 and 3). Celts were plated at a seeding density of 3.8×10^5 cells per well on 6-well plates (Corning Costar, N.Y., U.S.A.). Cells were allowed to attach for 24 h in a 37° C. humidified incubator with a 5% CO2 atmosphere. Media was replaced with that containing test agents or vehicle (0.1% dimethylsuiphoxide) and cells incubated for a further 24 h. Following the 24 h incubation with test agents, media was removed and RNA prepared using the Purelink RNA mini kit (ThermoFischer, Carlsbad, Calif.). Nucleic acid concentration was determined using a Nanodrop™ spectrophotometer (ThermoScientific) by measuring the OD at 260 nm and RNA purity was evaluated using the OD 260/280 nm ratio, 1 μg RNA was reverse transcribed using SuperScript®VILO™ (ThermoFischer) with cDNA synthesis performed using the following parameters: 10min at 25° C., 2 h at 42° C., 5min at 85° C. (deactivation) followed by a completion temperature de C. […] Results were analyzed by calculating the fold change of CYP1A1 mRNA levels normalized to 18S rRNA (ΔΔCt) in compound treated cells or tissues compared to vehicle levels.

Data set [1] concerns the target T1, Aryl Hydrocarbon Receptor (Homo sapiens, UniProt P35869).
T1 construct: endogenous in cells; host or cells: Normal human keratinocytes (NHK) transduced with the lentivector plox-XRE TATA-Luc (reporter only)
T1 sequence (P35869 11-848): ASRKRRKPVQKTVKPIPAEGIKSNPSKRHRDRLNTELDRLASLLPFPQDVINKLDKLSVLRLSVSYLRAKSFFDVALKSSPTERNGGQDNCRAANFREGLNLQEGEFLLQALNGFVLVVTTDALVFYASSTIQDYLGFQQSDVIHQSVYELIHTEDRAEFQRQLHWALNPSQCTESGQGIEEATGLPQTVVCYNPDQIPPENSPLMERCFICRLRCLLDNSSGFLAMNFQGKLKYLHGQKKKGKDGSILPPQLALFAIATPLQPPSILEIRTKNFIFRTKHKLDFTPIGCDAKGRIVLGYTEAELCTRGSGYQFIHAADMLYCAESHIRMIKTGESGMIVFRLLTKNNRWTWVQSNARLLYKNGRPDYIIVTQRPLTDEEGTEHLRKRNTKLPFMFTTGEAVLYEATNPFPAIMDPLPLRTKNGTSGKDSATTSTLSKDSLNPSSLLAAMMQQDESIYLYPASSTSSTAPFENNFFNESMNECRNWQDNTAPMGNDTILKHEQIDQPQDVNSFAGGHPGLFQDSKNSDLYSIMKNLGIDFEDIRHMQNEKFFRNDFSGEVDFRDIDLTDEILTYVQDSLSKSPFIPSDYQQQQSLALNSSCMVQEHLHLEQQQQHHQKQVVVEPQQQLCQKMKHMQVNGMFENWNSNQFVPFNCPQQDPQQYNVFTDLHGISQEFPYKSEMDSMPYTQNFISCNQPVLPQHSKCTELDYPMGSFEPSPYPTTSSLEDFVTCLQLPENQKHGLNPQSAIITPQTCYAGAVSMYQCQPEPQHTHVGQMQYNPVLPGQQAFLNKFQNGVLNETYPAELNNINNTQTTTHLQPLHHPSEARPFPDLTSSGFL
Description: AhR activation luciferase reporter in NHK-plox-XRE TATA-Luc cells. In kind it is cell-based. The conditions noted are these: treatment for 24 h with 1-10 uM. The protocol: AhR activation is also measured in human skin cells such as normal human keratinocytes (NHK cells) or A431 epidermoid cells stably transfected with the lentivector plox-XRE TATA-Luc. The NHK cells are cultured in a specific keratinocyte SFM medium (Glbco)+penicillin+streptomycin. At D0, the NHK cells are seeded Into 6-well plates in a proportion of approximately 15,000 cells/cm^2. After 24 h, the medium is replaced with fresh medium and the cells are transduced with the lentivector plox-XRE TATA-Luc. After 48 h, the cells are subcultured and maintained in culture, and tested for their reactivity to 3-phenyl-1H-benzo[f]chromen-1-one. The tests are carried out using the luciferase reporter assay system kit from Promega. At D0, the cells are seeded at a density of approximately 60% confluence, and then treated, at D1, with the test substance diluted to various concentrations in the appropriate culture medium. At D2, the cells are lysed in CLB buffer, and the lysate is clarified by centrifugation for 5 min at 10 000 g. The luciferase activity is measured in 20 microliters of lysate as recommended by the supplier, using the luminoskan luminometer (Thermo). […] Data is processed and ECso's can be calculated from standard data monitoring software.
For orientation: A reporter such as luciferase makes a cellular process visible.

`O=c1cc(-c2ccccc2)oc2ccc3ccccc3c12` [D, 3-Phenyl-1H-benzo[f]chromen-1-one, reference compound] returned a Toxicity threshold with HepG2 cells above 50 µM. In addition, in the data set with CYP1A1 mRNA, the “CYP1A1 mRNA fold change from vehicle” value worked out at 596 fold. Further, the “induction of luciferase activity” value in data set [1] is listed as “significant induction”.
